US11632973B2, “Composition comprising taste modulation compounds, their use and foodstuff comprising them” (V. MANE FILS, priority 2015, dated 2023)
“Also recorded” adds a separate entry of the source.

Key:
Type in all cases: in vivo
[1] = test system: panelists; test: Various lactams added to cheese sauce, saltiness evaluation (Deviation from Reference); conditions: for perception of creaminess / perception of saltiness: cheese sauce comprising the compound, compared to the control; for Test Effects Taster 1 / Test Effects Taster 2 / Test Effects Taster 3 / Test Effects Taster 4: cheese sauce plus 5 ppm compound, compared with cheese sauce alone
Method: Epsilon-caprolactam, 2-piperidone, and N-methylcaprolactam were added to cheese sauce.
All cheese sauce samples were served at 21° C. Samples were stirred by hand prior to portioning to ensure even distribution of components. Approximately 9 ml of cheese sauce was served into odorless, translucent, one-ounce cups labeled with three-digit codes and capped with a lid. The samples were portioned out approximately 45 minutes prior to evaluation.
Panelists evaluated all samples in fully enclosed partitioned booths under white lights. Fizz NETWORK Software Acquisitions Biosystemes 2.47B was used for data collection. Each panelist was provided with filtered water for rinsing and instructed to follow a strict rinsing procedure. The rinsing protocol required panelists to rinse prior to tasting the first sample, and after tasting each sample.
Samples were evaluated using a Deviation from Reference (DFR) method. Panelists were given an identified reference labeled “000” and a coded sample simultaneously. The coded sample was either a blind, coded reference or a coded test sample. The panelists were instructed to taste the reference (000) first and mentally evaluate its SALTINESS intensity. Panelists were then instructed to taste and rate the coded sample's intensity for SALTINESS compared to the identified reference. Sample sets were given to the panelists in balanced, randomized order. A one-minute wait period was enforced between sample sets to reduce flavour carryover.
Panelists rated SALTINESS intensity difference from the reference using a 9-pt scale anchored with the following descriptors: (−4) Extremely less than Reference, (0) Same as Reference, (4) Extremely more than Reference. Number values were NOT shown on the scale. Statistical mean differences were calculated using one-way ANOVA using Fizz Calculations Biosystemes 2.47B. A significance level of p≤0.05 was set for statistical tests. Compared to the control the perceptions of saltiness and creaminess in the cheese sauce comprising epsilon-caprolactam, 2-piperidone, and N-methylcaprolactam is increased.

[2] = test system: expert tasters; test: Effect on sweetness perception of Rebaudioside-A in water; conditions: for Taster Observations Taster 1 / Taster Observations Taster 2 / Taster Observations Taster 3 / Taster Observations Taster 4: Reb-A 250 ppm in water, TMC level 5 ppm; for bitter interference: Rebaudioside-A at 250 ppm, 5 ppm compound; for perception of sweetness: products with high intensity sweetener, four expert tasters, vs control
Method: The taste perception of the products containing the high intensity sweeteners without epsilon-caprolactam or 2-piperidone (Control) is compared with the same product (Test) containing epsilon-caprolactam or 2-piperidone. […] When a tasting solution is dosed with Rebaudioside-A at 250 ppm, with either epsilon-caprolactam or 2-piperidone at each 5 ppm, “bitter interference” and brightens pure sweetness are reduced.

[3] = test system: expert tasters; test: as above
[4] = Reb-A 25 ppm in water, TMC level 5 ppm

## O=C1CCCCN1 [2-piperidone]
[1]
  perception of creaminess: increased
  perception of saltiness: increased
  Test Effects Taster 1: Delayed saltier; also recorded: More dairy impact
  Test Effects Taster 2: Increased saltiness; also recorded: Increased creaminess
  Test Effects Taster 3: Saltier; also recorded: Creamier
  Test Effects Taster 4: Clean sweet; also recorded: Stronger sweet
[2]
  Taster Observations Taster 1: clean sweet,; also recorded: control
  Taster Observations Taster 2: clean sweet,; also recorded: no lingering
  Taster Observations Taster 3: clean sweet,; also recorded: no bitter,; also recorded: not linger
  Taster Observations Taster 4: clean sweet,; also recorded: stronger sweet
  bitter interference: reduced
  perception of sweetness: purified and amplified
[3]; [4]
  Taster Observations Taster 1: sweeter,; also recorded: clean
  Taster Observations Taster 2: clean sweet,; also recorded: no bitter
  Taster Observations Taster 3: no bitter
  Taster Observations Taster 4: best - sweetest,; also recorded: clean
[3]; Rebaudioside-A at 25 ppm, 5 ppm compound
  sweetness: purified and amplified

## CN1CCCCCC1=O [N-methylcaprolactam]
[1]
  perception of creaminess: increased
  perception of saltiness: increased
  Test Effects Taster 1: Slight increase in saltiness
  Test Effects Taster 2: Unclean; also recorded: Slightly bitter
  Test Effects Taster 3: Bitter; also recorded: Increased saltiness
  Test Effects Taster 4: Least effective of three

## O=C1CCCCCN1 [epsilon-caprolactam]
[1]
  perception of creaminess: increased
  perception of saltiness: increased
  Test Effects Taster 1: Slightly bitter; also recorded: Increased saltiness
  Test Effects Taster 2: Sweeter with less linger
  Test Effects Taster 3: Cleaner; also recorded: Less lingering; also recorded: Sweeter upfront
  Test Effects Taster 4: Cleaner; also recorded: Less lingering; also recorded: Sweeter upfront
[2]
  Taster Observations Taster 1: sweeter, less; also recorded: lingering,; also recorded: slightly bitter
  Taster Observations Taster 2: less linger
  Taster Observations Taster 3: sweeter; also recorded: cleaner,; also recorded: less lingering
  Taster Observations Taster 4: sweeter upfront,; also recorded: cleaner,; also recorded: less lingering
  bitter interference: reduced
  perception of sweetness: purified and amplified
[3]; [4]
  Taster Observations Taster 1: sweet,; also recorded: slightly bitter
  Taster Observations Taster 2: dirty,; also recorded: unclean
  Taster Observations Taster 4: slightly higher; also recorded: sweet
